The values that follow are results of earlier work, collected in patent US11220528B2, “Compositions and methods for treating pulmonary hypertension” (Marshall University Research Corporation, priority 2017, dated 2022).

For this data set the following is noted: background statement.

Take `CCCCC[C@H](O)/C=C/[C@@H]1[C@H]2C/C(=C/CCCC(=O)O)O[C@H]2C[C@H]1O` [Epoprostenol]: the half-life – broadly, the time in which the quantity being followed falls by half – is 3 to 5 min.
